As a reminder, the IC50 is the concentration that inhibits the measured activity by half.

Bounds are passed on as bounds.

This note sets out measurements from patent US10336775B2 (Asceneuron SA, priority 2014, dated 2019).

For the test, the target named is His-Tagged hOGA (human O-GlcNAcase) (Homo sapiens (Human), UniProt O60502). Briefly: Human O-GlcNAcase enzyme inhibition assay (Example B01). The conditions noted are these: OGA enzyme inhibition assay; activity range classes defined in μM; read-out: OGA IC50. The class given is biochemical.
His-Tagged hOGA (human O-GlcNAcase), sequence (O60502 whole entry): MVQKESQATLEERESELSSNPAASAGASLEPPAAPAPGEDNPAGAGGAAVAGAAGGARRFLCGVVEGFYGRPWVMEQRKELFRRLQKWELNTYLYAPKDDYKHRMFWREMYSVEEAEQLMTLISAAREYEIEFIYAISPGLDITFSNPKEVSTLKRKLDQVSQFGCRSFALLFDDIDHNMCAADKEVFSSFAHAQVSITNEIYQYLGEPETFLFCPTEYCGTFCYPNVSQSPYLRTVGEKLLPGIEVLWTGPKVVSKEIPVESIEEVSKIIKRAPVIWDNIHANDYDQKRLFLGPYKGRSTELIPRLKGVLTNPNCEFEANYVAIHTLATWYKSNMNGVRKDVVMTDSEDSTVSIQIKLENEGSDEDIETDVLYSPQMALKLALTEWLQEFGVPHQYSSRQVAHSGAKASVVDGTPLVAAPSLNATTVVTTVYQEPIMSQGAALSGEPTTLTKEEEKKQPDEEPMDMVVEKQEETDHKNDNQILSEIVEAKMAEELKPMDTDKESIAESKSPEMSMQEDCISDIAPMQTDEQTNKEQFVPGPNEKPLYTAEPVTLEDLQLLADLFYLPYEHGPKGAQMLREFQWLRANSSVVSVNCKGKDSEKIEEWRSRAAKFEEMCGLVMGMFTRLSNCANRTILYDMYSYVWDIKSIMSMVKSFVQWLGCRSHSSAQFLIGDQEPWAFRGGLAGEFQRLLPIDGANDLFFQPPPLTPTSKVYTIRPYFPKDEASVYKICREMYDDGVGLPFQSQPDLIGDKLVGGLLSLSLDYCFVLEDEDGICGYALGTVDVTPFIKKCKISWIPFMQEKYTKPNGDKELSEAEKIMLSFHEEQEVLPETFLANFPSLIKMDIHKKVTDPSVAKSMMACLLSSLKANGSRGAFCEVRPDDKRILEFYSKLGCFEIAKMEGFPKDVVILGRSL
`CC(c1ccc2c(c1)OCO2)N1CCN(c2nnc(NC(=O)C3CC3)s2)CC1` (racemic) [Example 108, N-(5-(4-(1-(benzo[d][1,3]dioxol-5-yl)ethyl)piperazin-1-yl)-1,3,4-thiadiazol-2-yl)cyclo propanecarboxamide]: the IC50 was less than 0.05 µM. As for `CC(c1ccc2nccnc2c1)N1CCN(c2nccc(C(F)(F)F)n2)CC1` (racemic) [Example 94, 6-(1-(4-(4-(trifluoromethyl)pyrimidin-2-yl)piperazin-1-yl)ethyl)quinoxaline], the figure is 0.2 to 1 µM; as for `CC(c1ccc2c(c1)OCO2)N1CCN(c2ncc3ccccc3n2)CC1` (racemic) [Example 119, 2-(4-(1-(benzo[d][1,3]dioxol-5-yl)ethyl)piperazin-1-yl)quinazoline], 0.05 to 0.2 µM; as for `Cc1cnc(N2CCN(C(C)c3ccc4nccnc4c3)CC2)nc1` (racemic) [Example 102, 6-(1-(4-(5-Methylpyrimidin-2-yl)piperazin-1-yl)ethyl)quinoxaline], 0.05 to 0.2 µM. On to `CCCNc1ccnc(N2CCN(C(C)c3ccc4c(c3)OCO4)CC2)n1` (racemic) [Example 45, 2-(4-(1-(Benzo[d][1,3]dioxol-5-yl)ethyl)piperazin-1-yl)-N-propylpyrimidin-4-amine], for which the IC50 is 0.2 to 1 µM. As for `CNC(=O)c1cnc(N2CCN(C(C)c3ccc4c(c3)OCCO4)CC2)s1` (racemic) [Example 109, 2-(4-(1-(2,3-dihydrobenzo[b][1,4]dioxin-6-yl)ethyl)piperazin-1-yl)-N-methylthiazole-5-carboxamide], the figure is less than 0.05 µM; as for `CC(=O)Nc1nnc(N2CCN(C(C)c3ccc4cc(Cl)cnc4c3)CC2)s1` (racemic) [Example 124], 1 to 10 µM.
